Here are results for 6 compounds from US5366983A, “Use of quaternary ammonium compounds to remove salmonella contamination from meat products” (The Board of Trustees of The University of Arkansas, priority 1992, dated 1994).

“Also recorded” adds a separate entry of the source. Like-named read-outs stand apart in the source and are kept apart here.

Data set [1] concerns Salmonella typhimurium ATCC 14028. The data set can be described thus: Effect on viability of Salmonella in suspension (Tables D-1 to D-3). It counts as cell-based. Conditions: for bacterial viability: Table D-3. As to the method:
EC50 values for four of the compounds were calculated from the bactericidal activity of the compounds as a function of molar concentration by a nonlinear regression algorithm.
In addition to the quaternary ammonium compounds, the antimicrobial activities of chelating agents Na2 -EDTA and EGTA were investigated. Na2 -EDTA was purchased from the Sigma Chemical Company (St. Louis, Mo.). Na2 -EDTA was dissolved in 0.04 M PPB prior to the assay and further dilutions were made in the same buffer.
EGTA was purchased from the Aldrich Chemical Company (Milwaukee, Wis.). EGTA was dissolved in 0.04 M PPB according to the procedure described by Harafuji and Ogawa (J. Biochem. 87:1305-1312 (1980)). After heating EGTA for 15 minutes at 80° C., the pH was adjusted to 7.0 by addition of NaOH. EGTA was filter-sterilized using a 0.2 μm Acro disc filter (Gelman Sciences; Ann Arbor, Mich.) prior to the assay. Further dilutions were made in sterile PPB.

In data set [2] the test system is Salmonella typhimurium ATCC 14028 attached to human buccal epithelial cells. It counts as cell-based. Conditions: for adherence, mean value of attached bacteria: Table A-1. As to the method:
Studies were conducted on the attachment of Salmonella typhimurium to human buccal epithelial cells using the modified procedure of Boussard et al., International J. Pharmaceutics 53: 253-256 (1989). In this study, the activities of cationic and anionic surfactant compounds as well as certain chelating agents were compared on the detachment of S. typhimurium from epithelial cells.
To this end, bacteria were grown on nutrient agar for 16 hours at 37° C. The cells were suspended in 0.008 M phosphate buffered saline (PBS) at pH 7.2 and washed two times at 4500 rpm for 10 minutes. The last suspension was diluted in PBS to obtain a cell concentration of 0.5 to 1×10^9 cells/ml. Human epithelial cells were obtained by swabbing the buccal surface of a healthy, nonsmoking donor. […] The number of living cells was estimated and the suspension diluted to 0.5 to 1×10^5 cells/ml.
Next, the suspension of the human buccal cells was mixed with an equal volume of the bacterial suspension (3.0 ml), or PBS (0.8 ml). Contact was allowed for 1.5 hours at 35° C. under agitation. The mixtures were then centrifuged for 10 minutes at 4500 rpm. Each suspension, 1.0 ml, was transferred into Eppendorf vials and washed with PBS at 1500 rpm for 10 minutes. After the washing, the cells were treated with 1.0 ml PBS or 1.0 ml of the test chemical solution. Treatment was performed by suspending and vortexing on a low speed for 30 seconds followed by centrifugation at 1500 rpm for 10 minutes.
After the treatment, the cells were washed once with PBS and then 20 μl of erythrosin B was added to each vial. The suspension was centrifuged at 1500 rpm for 10 minutes, and the cells were washed twice under the same conditions. The final pellet was suspended in 300 μl of PBS. This suspension was spread out onto microscope slides and dried overnight at room temperature. After counter staining with methylene blue, the slides were microscopically examined under oil immersion.

Data set [3] concerns Salmonella typhimurium on chicken skin. The data set can be described thus: Prevention of attachment of Salmonella on excised chicken skin (Table F5). Conditions: 30 minutes at room temperature; for CFU/ml on XLD agar: rinse water. On the procedure: To determine the ability of surfactants to inhibit attachment or produce detachment of Salmonella, the following experiment was conducted. A hole was bored into the bottom of a 150 ml specimen cup. Chicken skin was excised from a drum stick and then placed over the cap of the specimen cup, and then the cap was screwed on. S. typhimurium was diluted 1:5000 with PBS or a surfactant. The surfactants were diluted appropriately. The skin was then inoculated with the solution containing the S. typhimurium and the surfactant for 30 minutes at room temperature.
Following incubation, the skin was washed. The rinse water was diluted appropriately in PBS and then plated onto XLD pour plates. The S. typhimurium was counted and reported as CFU/ml. The skin was swabbed so as to remove any remaining S. typhimurium using a nitroellulose lift and the CFU's/ml on the lift were also counted.

For data set [4] the test system is unchanged. Briefly: Effect of surfactants on Salmonella attached to chicken skin, drumsticks (Tables F1-F4). Conditions: 4° C. On the procedure: The following experiments utilizing chicken legs were conducted to determine the killing potential of a variety of surfactants against Salmonella on the skin and free in solutions. To this end, chicken legs obtained from the Department of Agriculture at the University of Arkansas, Fayetteville, were incubated for thirty minutes at room temperature with a 1:5000 dilution of Salmonella typhimurium. The chicken legs were removed five at a time and then rinsed twice in tap water to remove the unattached and excess Salmonella. The rinse water was sampled, diluted, and then plated onto XLD pour plates. […] The chicken legs were then removed and rinsed twice in tap water to remove the released Salmonella and excess chemicals. Rinses were then sampled, diluted, and then plated onto XLD pour plates.
The chicken legs were then individually washed with 100 ml sterile double distilled water, and then shaken fifty times. Samples of the wash H2 O were diluted and plated onto XLD pour plates. The chicken legs were further swabbed after the washing step above. The swabs were then plated onto the XLD plates. A set of wash samples were enriched with TT Broth Base Hajna and then plated onto XLD plates.
All of the samples were plated in 1 ml aliquots onto XLD pour plates. A positive control sample incubated in sterile double distilled water at 4° C. was run for each of the aforementioned conditions. Treatments occurred at both 4° C. and 25° C. The data is reported as the mean number of CFU/ml. The ratio in the table represents the number of chicken legs out of a sample of ten chicken legs producing the notated number of colonies, as indicated by the +, ++, +++, or ++++.

The subject of data set [5] is Salmonella typhimurium TA98. The data set can be described thus: Salmonella reversion assay, TA98. As to the method: (§1) Test strains TA98 and TA100 were obtained from Bruce N. Ames (University of California, Berkley, Calif.). Mutagenicities were determined both in the absence of and in the presence of a mammalian liver S9 activating system. S9 is the 9000×g supernatant prepared from liver homogenates from Aroclor 1254 stimulated male Sprague Dawley rats. The S9 was purchased from Molecular Toxicology, Inc. (Anapolis, Md.).
(§2) Bacterial broth cultures were grown overnight at 37° with shaking in Oxoid Broth #2. For assays in the absence of S9, a 0.5 ml aliquot of 100 mM Sodium Phosphate Buffer, pH 7.4, was added to sterile 13×100 mm capped culture tubes. For assays in the presence of S9, a 0.5 ml aliquot of 10% S9 mix was added. The S9 mix consisted of 8 mM magnesium chloride, 33 mM potassium chloride, 5 mM glucose-6-phosphate, 4 mM NADP, 100 mM sodium phosphate, pH 7.4 and S9 in a concentration of approximately 1.46 mg protein/ml.
(§3) The culture tubes were placed in an ice bath and 0.1 ml of the bacterial suspension and 0.1 ml of a DMSO solution of the test compound were added. The mixture was vortexed gently and incubated at 37° for 20 minutes with shaking in a water bath. Molten top agar (2.0 ml) containing 0.5 mM histidine HCl and 0.5 mM biotin were added, and the mixture was vortexed gently and poured onto a minimal glucose plate. After allowing the agar to solidify, the plates were inverted and placed in a 37° incubator in the dark for 48 hours. The revertant (mutant) colonies were counted and the background lawn was examined on all plates. A response that was two times that of the DMSO solvent control was considered a positive response.

The subject of data set [6] is Salmonella typhimurium TA100. Briefly: Salmonella reversion assay, TA100. As to the method: as §1, §2, §3
Data set [7] relates to Salmonella typhimurium TA98. The data set can be described thus: Salmonella reversion assay after heating at 205° C., TA98. It counts as cell-based. On the procedure:
(§4) Test strains TA98 and TA100 were used. Again, mutagenicities were determined both in the absence and in the presence of the mammalian liver S9 activating system.
(§5) A response that was two times that of the solvent control was considered a positive response.

For data set [8], the system named is Salmonella typhimurium TA100. The data set can be described thus: Salmonella reversion assay after heating at 205° C., TA100. It counts as cell-based. As to the method: as §4, §5

Consider `O=C(O)CN(CCOCCOCCN(CC(=O)O)CC(=O)O)CC(=O)O` [EGTA, reference compound], for which the bacterial viability in data set [1] (1,250 μg/ml) was 1.55 ± 0.09 × 10^9 CFU/ml; in data set [1] (2,500 μg/ml), 1.45 ± 0.03 × 10^9 CFU/ml; in data set [1] (5,000 μg/ml), 1.51 ± 0.18 × 10^8 CFU/ml. In addition, in data set [1] (viability testing in suspension), the “bactericidal effect against S. typhimurium (in words)” value is reported as “ineffective; also recorded: no bactericidal effect”. Further, the “effect on bacteria attached to the epithelial cells (in words)” value in data set [2] (chelating agents, Na2-EDTA at 1250 μg/ml) is “no significant effect”.
With `CCCCCCCCCCCCCCCC[n+]1ccccc1` [CPB, cetylpyridinium bromide], the “adherence, mean value of attached bacteria” value in data set [2] (10 ug/ml) turned out to be 28 ± 28; in data set [2] (25 ug/ml), 23 ± 17; in data set [2] (50 ug/ml), 25 ± 10.
With `C[C@H](CCC(=O)O)[C@H]1CC[C@H]2[C@@H]3CC[C@@H]4C[C@H](O)CC[C@]4(C)[C@H]3C[C@H](O)[C@]12C` [Deoxycholic Acid, reference compound], in data set [3], the “CFU/ml on XLD agar” value was determined as 90 CFU/ml. In data set [4] (0.1%), the “Enrichment, chicken legs out of ten” value is recorded as 10/10; the “Rinse H2O” value is listed as “+ (1-10)”; the “Surfactant Solution” value is given as “++ (11-100)”; the “Swabs, chicken legs producing the notated number of colonies” value (from here on “Swabs … of colonies”) is on record as 10/10. In addition, in data set [4] (0.1%), the “Swabs, colonies” value was “++ (11-100)”; the “Wash H2O, chicken legs producing the notated number of colonies” value (“Wash H2O … of colonies” below) is on record as 10/10; the “Wash H2O, colonies” value is given as “++ (11-100)”. Besides, in data set [4] (0.5%), the “Enrichment, chicken legs out of ten” value is 10/10; the “Rinse H2O” value is given as “+ (1-10)”; the “Surfactant Solution” value is “+ (1-10)”; the “Swabs … of colonies” value is 10/10. For the same compound, in data set [4] (0.5%), the “Swabs, colonies” value was “+ (1-10)”; the “Wash H2O … of colonies” value was 10/10; the “Wash H2O, colonies” value was “++ (11-100)”. Further, in data set [4] (1.0%), the “Enrichment, chicken legs out of ten” value is reported as 10/10; the “Rinse H2O” value is listed as “+ (1-10)”; the “Surfactant Solution” value was “++ (11-100)”; the “Swabs … of colonies” value is 9/10. Moreover, in data set [4] (1.0%), the “Swabs, colonies” value is recorded as “++ (11-100)”; the “Wash H2O … of colonies” value is reported as 10/10; the “Wash H2O, colonies” value is “++ (11-100)”.
For “Benzalkonium Chloride [reference compound]”, in data set [3], the “CFU/ml on XLD agar” value was determined as 0 CFU/ml. The “Nitrocellulose lift (# of colonies)” value in data set [3] (skin) was “OG(R)”. Also, in data set [4] (0.1%), the “Enrichment, chicken legs out of ten” value is recorded as 1/10; the “Rinse H2O” value is “+ (1-10)”; the “Surfactant Solution” value is given as 0 CFU/ml; the “Swabs … of colonies” value was 6/10. Moreover, in data set [4] (0.1%), the “Swabs, colonies” value is “+ (1-10)”; the “Wash H2O … of colonies” value is 4/10; the “Wash H2O, colonies” value is “+ (1-10)”. For the same compound, in data set [4] (0.5%), the “Enrichment, chicken legs out of ten” value is listed as 1/10; the “Rinse H2O” value is 0 CFU/ml; the “Surfactant Solution” value was determined as 0 CFU/ml; the “Swabs … of colonies” value is 1/10. Moreover, in data set [4] (0.5%), the “Swabs, colonies” value is given as “+ (1-10)” and the “Wash H2O, colonies” value is on record as 0 CFU/ml. For the same compound, in data set [4] (1.0%), the “Enrichment, chicken legs out of ten” value is on record as 0/10; the “Rinse H2O” value amounted to 0 CFU/ml; the “Surfactant Solution” value came out at 0 CFU/ml; the “Swabs … of colonies” value is 1/10. For the same compound, in data set [4] (1.0%), the “Swabs, colonies” value is “++ (11-100)” and the “Wash H2O, colonies” value is on record as 0 CFU/ml.
With `Nc1ccc2cc3ccccc3cc2c1` [2aminoanthracene, reference compound], the control reversion frequency is given as 901 ± 90 Revertants/plate in data set [5] (TA98, +S9, 2.5 μg/plate); 1497 ± 68 Revertants/plate in data set [6] (TA100, +S9, 2.5 μg/plate); 909 ± 85 Revertants/plate in data set [7] (TA98, +S9, 2.5 μg/plate); 1103 ± 84 Revertants/plate in data set [8] (TA100, +S9, 2.5 μg/plate).
For the compound `O=C1NCCN1c1ncc([N+](=O)[O-])s1` [Niridazole, reference compound], the control reversion frequency in data set [5] (TA98, -S9, 0.2 μg/plate) is recorded as 358 ± 19 Revertants/plate; in data set [6] (TA100, -S9, 0.2 μg/plate), 637 ± 57 Revertants/plate; in data set [7] (TA98, -S9, 0.2 μg/plate), 126 ± 7 Revertants/plate; in data set [8] (TA100, -S9, 0.2 μg/plate), 729 ± 30 Revertants/plate.
